US20040009899A1, “Treating dominant disorders” (priority 2002, published 2004)

Columns and labels:
[1] = tested on: endogenous mouse Hdh allele; experiment: Western immunoblot of endogenous mouse htt expression in PNA-treated R6/1 mice; format: in vivo; conditions: any tissue examined (striatum, liver), any tested time point (4 or 6 days)
Protocol: Cannulation and microsurgery—method 1: B6CBA, R6/1, and R6/2 mice were obtained from The Jackson Laboratory (Bar Harbor, Me.). Mice were anesthetized via intraperitoneal (i.p.) injection with 100 mg/kg of a ketamine/xylazine solution containing 8 mg/mL ketamine and 1 mg/mL xylazine in 0.9% saline. Once anesthetized, each mouse was cannulated. Each anesthetized mouse was placed in a Stoelting Stereotaxic Frame with a mouse adapter (Stoelting Instruments, Wood Dale, Ill.). An incision was made using a scalpel, and the skin and tissue were pulled back with swabs to reveal the skull. The cannulation site was positioned for optimum access to the ventricle, at coordinates AP −0.2 mm, Horiz −1 mm from bregma. A cannula entry port and two bone screw ports were opened in the skull using a Dremel Flex Shaft Drill (Stoelting Instruments) with a 2.1 mm burr for the guide cannula port and a 0.7 mm burr for the bone screws (Fine Science Tools, Foster City, Calif.). Two 4.0 mm long bone screws (0.85 diameter) were placed far enough into the bone screw ports to fasten securely. […]
Following the treatment period, mice were anesthetized with ether and sacrificed by cervical dislocation. […] Following centrifugation, the supernatants were removed and protein concentrations were quantified by Bradford assays using a BSA standard. […]

R6/2 mice = experiment: Clasping test; format: in vivo, mouse; conditions: any group (2.0, 5.0 or 20.0 mg/kg i.p. every 48 hours)
Protocol: Clasping test: Dystonic movement was assessed using a procedure adapted from Yamamoto and colleagues (Yamamoto et al., Cell, 101:57-66, 2000). Each animal was suspended by the tail for 15 seconds, and its behavior was videotaped for subsequent analysis. The number and duration of abnormal movements were recorded upon viewing the videotaped behavior. An abnormal movement was defined as any dystonic movement of hindlimbs and/or forelimbs and/or trunk during which the limbs were pulled in toward the body in a manner distinct from that observed in wild-type mice. The duration of dystonic movements was recorded as a percent of total time. Mice were assessed for clasping score and clasping duration. The test period was divided into 2-second increments.
In other experiments, R6/2 mice were divided into five groups (designated groups 1-5) containing eight to ten animals each. Groups 1-4 received either saline (group 1) or a specific amount of HDs (groups 2-4). Group 5 included untreated R6/2 mice. A sixth group included untreated non-transgenic B6CBA control mice. […]
At 9 weeks of age, the mice in each group received saline (group 1) or HDs at 2.0 mg/kg, 5.0 mg/kg, or 20.0 mg/kg (groups 2, 3, and 4, respectively) by i.p. injection every 48 hours. […] Weight stability, clasping behavior, motility, and motor skill were assessed weekly during the treatment period. […]

HDs: sense PNA oligomer, 14 residues, 5′-GGACTGCCGTGCCG-3′ (SEQ ID NO:3), specific for the expanded human HD allele (all peptide nucleic acid (PNA))
effect on expression of the endogenous mouse Hdh allele [1]: Neither HDs nor HDscr had any effect | clasping behavior over the treatment period (R6/2 mice): No significant alterations in clasping behavior
